Entries after “also recorded” stand apart in the source; their conditions may differ.
Key:
[1] = tested on: pancreatic afferent neurons / spinal segments T8-T10; assay: c-FOS expression in spinal cord segments after pancreatic intraductal injection; format: in vivo, rat
Procedure: Intraductal (pancreatic duct) injection. To administer the necessary peptides directly into the rat pancreatic duct we followed a modified protocol, previously described by Kim et al. (1996). In brief, rats were anesthetized i.p. with nembutal sodium (Abbot Laboratories, Chicago, Ill.) (50 mg/kg body weight). The peritoneum was incised to expose the duodenum and the duodenal loop was pulled out. The pancreatic duct entering the duodenum was identified under dissecting microscope and a small niche was made into the duct with a 30-gauge needle. A polyethylene 10 tubing (0.61 mm outer diameter) (Becton Dickinson and Company, Franklin Lakes, N.J.) was guided into the duct and tied to secure its position. The common bile duct was ligated close to the liver to prevent entry of the injected substance into the liver. Similarly the duct was ligated near its entry into the duodenum. The position of the tube into the pancreatic duct was confirmed by freely flowing bile through the tubing. […] Thirty minutes later Capsaicin 0.5 mg/kg (total volume 500 μl) or vehicle (1×PBS, 10% ETOH, 1% Tween) was injected to half of the AcPep or CoPep injected rats. Three rats were included in each treatment group (n=3 for number of experiments). The tubing was carefully removed and bile flow from the liver into the duodenum was re-established. The abdominal cavity was closed with sutures. Rats were sacrificed 2.5 hrs after the initial injection.
C-fos staining. Rats were anesthetized with sodium pentobarbital (50 mg/kg i.p.) and perfused with 200 mls PBS followed by 500 mls ice-cold freshly prepared 4% paraformaldehyde in PBS. Spinal cord (level T5-T13) was removed, post-fixed in 4% paraformaldehyde for 18 hrs at 4° C. and placed in PBS (pH 7.4) containing 30% sucrose for 24 hrs at 4° C. Frozen sections (40 μm) were cut on a cryostat and stored as floating sections in PBS at 4° C. Every third section was stained for c-fos with a rabbit polyclonal serum, 1:1000 dilution, (c-fos, Ab-5, Oncogene Research Products) utilizing manufacturer's protocol. Antibody staining was visualized using a biotinylated secondary antisera and Vectastain ABC peroxidase kit with DAB as substrate. Sections were mounted on Superfrost Plus slides (VWR Scientific, West Chester, Pa.) and dehydrated. The number of c-FOS immunoreactive (IR) neurons were counted in 10 randomly chosen sections per segment under brightfield illumination and then averaged.
Statistics. Release data are presented as the mean± standard error of the mean (SEM) of wells from three separate experiments. […] Intraductal injection studies were analyzed using a repeated measure ANOVA and individual means were compared using a Newman-Keuls multiple comparison test. […]

PAR-1 = target: T1, PAR-1 (Homo sapiens, UniProt P25116); conditions: Blackhart et al. 1996; cited from earlier work
T1 sequence (P25116 22-425): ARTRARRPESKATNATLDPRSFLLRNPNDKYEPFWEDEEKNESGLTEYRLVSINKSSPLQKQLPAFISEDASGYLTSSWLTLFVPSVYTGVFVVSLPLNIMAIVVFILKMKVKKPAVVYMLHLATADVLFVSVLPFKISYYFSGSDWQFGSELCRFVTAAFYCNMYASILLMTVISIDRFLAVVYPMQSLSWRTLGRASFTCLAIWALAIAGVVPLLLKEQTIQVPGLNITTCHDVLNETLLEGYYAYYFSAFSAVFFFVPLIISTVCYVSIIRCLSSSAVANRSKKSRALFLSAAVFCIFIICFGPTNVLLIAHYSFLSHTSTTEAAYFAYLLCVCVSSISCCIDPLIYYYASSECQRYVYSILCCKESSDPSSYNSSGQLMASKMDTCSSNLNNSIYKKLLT

SLIGRL (PEPTIDE (1)..(6) PAR-2 activating peptide; listed as Rattus sp.) [AcPep]
c-FOS IR neurons in segments T8-T10, peptide alone ([1]; 100 μM infused into the pancreatic duct, 2.5 hours, compared to CoPep): more c-FOS IR neurons; also recorded: does increase c-FOS expression | c-FOS expression in spinal segments T8-T10, peptide alone ([1]; intraductal injection of AcPep 10 μM, 2.5 hours later, compared to control rats): significantly increased | Capsaicin-evoked c-FOS expression in segments T8-T10 ([1]; peptide 100 μM intraductal, followed 30 min later by Capsaicin 0.5 mg/kg, 2.5 hours): more c-FOS; also recorded: enhanced Capsaicin-evoked c-FOS expression | activation of PAR-1 (PAR-1): does not activate PAR-1

From US7541156B1, “Method of identifying antinociceptive compounds using protease activated receptor-2” (priority 2000, dated 2009)
